Reference: ChEMBL document CHEMBL1201862, “PubChem BioAssay data set” (2004)
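Five compound concentrations were applied to cells in 96-well plates for 48 hours; endpoints were derived by simple linear interpolation of the resulting dose-response curve. Abbreviation: GI50, concentration required for 50% inhibition of growth.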 Activity calls are given as the source filed them. Rule as the data show it: active = GI50 up to about 1.1 µM and inactive = higher.

Legend:
Assay in all cases: DTP human tumour cell line panel, 48 h
[1] = test system: SK-MEL-2
[2] = test system: SW-620
[3] = test system: HOP-18
[4] = test system: M14
[5] = test system: SF-268
[6] = test system: SN12C
[7] = test system: NCI-H522
[8] = test system: RPMI-8226
[9] = test system: SK-OV-3
[10] = test system: SNB-78
[11] = test system: HCT-116
[12] = test system: COLO 205
[13] = test system: HT-29
[14] = test system: KM-20L2
[15] = test system: NCI-H460
[16] = test system: NCI-H226
[17] = test system: 786-0
[18] = test system: SF-295
[19] = test system: SF-539
[20] = test system: KM12
[21] = test system: A498
[22] = test system: TK-10
[23] = test system: LXFL 529
[24] = test system: DLD-1
[25] = test system: Malme-3M
[26] = test system: CAKI-1
[27] = test system: UACC-62
[28] = test system: RXF 393
[29] = test system: DMS-273
[30] = test system: MOLT-4
[31] = test system: OVCAR-8
[32] = test system: A549
[33] = test system: OVCAR-5
[34] = test system: K562
[35] = test system: SK-MEL-5
[36] = test system: OVCAR-4
[37] = test system: SR
[38] = test system: SNB-19
[39] = test system: HCC 2998
[40] = test system: U-251
[41] = test system: SNB-75
[42] = test system: UO-31
[43] = test system: DMS-114
[44] = test system: IGROV-1
[45] = test system: OVCAR-3
[46] = test system: UACC-257
[47] = test system: EKVX
[48] = test system: NCI-H23
[49] = test system: HOP-62
[50] = test system: HOP-92
[51] = test system: ACHN
[52] = test system: HCT-15
[53] = test system: HL-60
[54] = test system: M19-MEL
[55] = test system: CCRF-CEM
[56] = test system: LOX IMVI

## O=C(O)c1ccccc1Cc1ccco1
[1]
  GI50: > 100 µM (inactive)
[2]
  GI50: > 100 µM (inactive)
[3]
  GI50: > 100 µM (inactive)
[4]
  GI50: > 100 µM (inactive)
[5]
  GI50: > 100 µM (inactive)
[6]
  GI50: > 100 µM (inactive)
[7]
  GI50: > 100 µM (inactive)
[8]
  GI50: > 100 µM (inactive)
[9]
  GI50: > 100 µM (inactive)
[10]
  GI50: > 100 µM (inactive)
[11]
  GI50: > 100 µM (inactive)
[12]
  GI50: > 100 µM (inactive)
[13]
  GI50: > 100 µM (inactive)
[14]
  GI50: > 100 µM (inactive)
[15]
  GI50: > 100 µM (inactive)
[16]
  GI50: > 100 µM (inactive)
[17]
  GI50: > 100 µM (inactive)
[18]
  GI50: > 100 µM (inactive)
[19]
  GI50: > 100 µM (inactive)
[20]
  GI50: > 100 µM (inactive)
[21]
  GI50: > 100 µM (inactive)
[22]
  GI50: > 100 µM (inactive)
[23]
  GI50: > 100 µM (inactive)
[24]
  GI50: > 100 µM (inactive)
[25]
  GI50: > 100 µM (inactive)
[26]
  GI50: > 100 µM (inactive)
[27]
  GI50: > 100 µM (inactive)
[28]
  GI50: > 100 µM (inactive)
[29]
  GI50: > 100 µM (inactive)
[30]
  GI50: > 100 µM (inactive)
[31]
  GI50: > 100 µM (inactive)
[32]
  GI50: > 100 µM (inactive)
[33]
  GI50: > 100 µM (inactive)
[34]
  GI50: > 100 µM (inactive)
[35]
  GI50: > 100 µM (inactive)
[36]
  GI50: > 100 µM (inactive)
[37]
  GI50: > 100 µM (inactive)
[38]
  GI50: > 100 µM (inactive)
[39]
  GI50: > 100 µM (inactive)
[40]
  GI50: > 100 µM (inactive)
[41]
  GI50: > 100 µM (inactive)
[42]
  GI50: > 100 µM (inactive)
[43]
  GI50: > 100 µM (inactive)
[44]
  GI50: > 100 µM (inactive)
[45]
  GI50: > 100 µM (inactive)
[46]
  GI50: > 100 µM (inactive)
[47]
  GI50: > 100 µM (inactive)
[48]
  GI50: > 100 µM (inactive)
[49]
  GI50: > 100 µM (inactive)
[50]
  GI50: > 100 µM (inactive)
[51]
  GI50: > 100 µM (inactive)
[52]
  GI50: > 100 µM

## Nc1ccc2c(c1)CC1c3ccccc3C(C2)c2ccccc21
[1]
  GI50: > 100 µM (inactive)
[2]
  GI50: > 100 µM (inactive)
[3]
  GI50: > 100 µM (inactive)
[4]
  GI50: > 100 µM (inactive)
[5]
  GI50: > 100 µM (inactive)
[6]
  GI50: > 100 µM (inactive)
[7]
  GI50: > 100 µM (inactive)
[8]
  GI50: 34.6 µM (inactive)
[9]
  GI50: > 100 µM (inactive)
[10]
  GI50: > 100 µM (inactive)
[11]
  GI50: > 100 µM (inactive)
[53]
  GI50: > 100 µM (inactive)
[12]
  GI50: > 100 µM (inactive)
[13]
  GI50: > 100 µM (inactive)
[14]
  GI50: > 100 µM (inactive)
[15]
  GI50: > 100 µM (inactive)
[17]
  GI50: > 100 µM (inactive)
[18]
  GI50: > 100 µM (inactive)
[54]
  GI50: > 100 µM (inactive)
[19]
  GI50: > 100 µM (inactive)
[20]
  GI50: > 100 µM (inactive)
[21]
  GI50: > 100 µM (inactive)
[22]
  GI50: > 100 µM (inactive)
[23]
  GI50: > 100 µM (inactive)
[24]
  GI50: > 100 µM (inactive)
[55]
  GI50: 47.3 µM (inactive)
[25]
  GI50: > 100 µM (inactive)
[26]
  GI50: > 100 µM (inactive)
[27]
  GI50: > 100 µM (inactive)
[28]
  GI50: > 100 µM (inactive)
[29]
  GI50: > 100 µM (inactive)
[56]
  GI50: > 100 µM (inactive)
[30]
  GI50: > 100 µM (inactive)
[31]
  GI50: > 100 µM (inactive)
[32]
  GI50: > 100 µM (inactive)
[33]
  GI50: > 100 µM (inactive)
[34]
  GI50: > 100 µM (inactive)
[35]
  GI50: > 100 µM (inactive)
[36]
  GI50: > 100 µM (inactive)
[37]
  GI50: 9.68 µM (inactive)
[38]
  GI50: > 100 µM (inactive)
[39]
  GI50: > 100 µM (inactive)
[40]
  GI50: > 100 µM (inactive)
[41]
  GI50: > 100 µM (inactive)
[42]
  GI50: > 100 µM (inactive)
[43]
  GI50: > 100 µM (inactive)
[44]
  GI50: > 100 µM (inactive)
[46]
  GI50: > 100 µM (inactive)
[49]
  GI50: > 100 µM (inactive)
[50]
  GI50: > 100 µM (inactive)
[51]
  GI50: > 100 µM (inactive)
[52]
  GI50: > 100 µM
